From the NIST ThermoML archive (doi:10.1021/je100104v)

How the values were obtained:
[1] = xn = mol fraction of the nth substance listed; settings: Liquid; for electrical conductivity / viscosity: 101.3 kPa; for electrical conductivity: Eutech Cyberscan Con 11; for mass density: 101 kPa
[2] = refractive index (Na D-line) (dimensionless); xn = mol fraction of the nth substance listed; settings: 101.3 kPa, Liquid, Standard Abbe refractometry

C[P+](c1ccccc1)(c1ccccc1)c1ccccc1.[Br-] [methyltriphenylphosphonium bromide] + OCC(O)CO
Settings | electrical conductivity [S/m] | mass density [kg/m3] | refractive index | viscosity [mPa·s]
[1], 278.1 K, x1 = 0.3636 | 0.00375 | – | – | –
[1], 288.15 K, x1 = 0.3636 | 0.00826 | – | – | –
[1], 298.15 K, x1 = 0.3636 | 0.0165 | 1289.9 | – | –
[1], 308.15 K, x1 = 0.3636 | 0.0315 | 1283 | – | –
[1], 318.15 K, x1 = 0.3636 | 0.0555 | 1275.9 | – | 887.1
[1], 328.15 K, x1 = 0.3636 | 0.0901 | 1268.8 | – | 414.9
[1], 338.15 K, x1 = 0.3636 | 0.127 | 1261.9 | – | 205.7
[1], 348.15 K, x1 = 0.3636 | 0.182 | 1255 | – | 104.8
[1], 358.15 K, x1 = 0.3636 | 0.242 | 1248 | – | 77.4
[1], 368.15 K, x1 = 0.3636 | 0.315 | – | – | 36.9
[2], 288.15 K, x2 = 0.3636 | – | – | 1.5708 | –
[2], 298.15 K, x2 = 0.3636 | – | – | 1.5666 | –
[2], 308.15 K, x2 = 0.3636 | – | – | 1.5656 | –
[2], 318.15 K, x2 = 0.3636 | – | – | 1.5627 | –
[2], 328.15 K, x2 = 0.3636 | – | – | 1.5607 | –
[2], 338.15 K, x2 = 0.3636 | – | – | 1.5578 | –

[Cl-].c1ccc(C[P+](c2ccccc2)(c2ccccc2)c2ccccc2)cc1 [benzyltriphenylphosphonium chloride] + OCCO
Settings | electrical conductivity, [1] [S/m] | refractive index, [2] | viscosity, [1] [mPa·s]
328.15 K, x1 = 0.25 | 0.0485 | – | 201.9
328.15 K, x2 = 0.25 | – | 1.5258 | –
338.15 K, x1 = 0.25 | 0.0199 | – | 85.5
338.15 K, x2 = 0.25 | – | 1.5309 | –
348.15 K, x1 = 0.25 | 0.00164 | – | 59.3
358.15 K, x1 = 0.25 | 0.00148 | – | 50.5
368.15 K, x1 = 0.25 | 0.00136 | – | 35.9

C[P+](c1ccccc1)(c1ccccc1)c1ccccc1.[Br-] [methyltriphenylphosphonium bromide] + OCCO
Settings | electrical conductivity, [1] [S/m] | mass density, [1] [kg/m3] | refractive index, [2] | viscosity, [1] [mPa·s]
278.1 K, x1 = 0.2 | 0.0371 | – | – | 345
288.15 K, x1 = 0.2 | 0.055 | – | – | 186.1
288.15 K, x2 = 0.2 | – | – | 1.5622 | –
298.15 K, x1 = 0.2 | 0.0788 | 1232.6 | – | 109.8
308.15 K, x1 = 0.2 | 0.109 | 1225.6 | – | 68.6
308.15 K, x2 = 0.2 | – | – | 1.5542 | –
318.15 K, x1 = 0.2 | 0.144 | 1218.5 | – | 39.5
328.15 K, x1 = 0.2 | 0.188 | 1211.4 | – | 19.7
328.15 K, x2 = 0.2 | – | – | 1.5483 | –
338.15 K, x1 = 0.2 | 0.234 | 1204.3 | – | 5.4
338.15 K, x2 = 0.2 | – | – | 1.5446 | –
348.15 K, x1 = 0.2 | 0.285 | 1197.2 | – | 1.8
358.15 K, x1 = 0.2 | 0.338 | 1190 | – | –
368.15 K, x1 = 0.2 | 0.382 | – | – | –

NC(=O)C(F)(F)F [2,2,2-trifluoroacetamide] + C[P+](c1ccccc1)(c1ccccc1)c1ccccc1.[Br-]
Settings | electrical conductivity, [1] [S/m] | mass density, [1] [kg/m3] | refractive index, [2] | viscosity, [1] [mPa·s]
278.1 K, x2 = 0.111 | 0.0134 | – | – | 657.7
288.15 K, x1 = 0.111 | – | – | 1.4913 | –
288.15 K, x2 = 0.111 | 0.0351 | – | – | 405.9
298.15 K, x1 = 0.111 | – | – | 1.4849 | –
298.15 K, x2 = 0.111 | 0.0848 | 1394.7 | – | 136.5
308.15 K, x1 = 0.111 | – | – | 1.4824 | –
308.15 K, x2 = 0.111 | 0.182 | 1383.7 | – | 71.3
318.15 K, x1 = 0.111 | – | – | 1.4782 | –
318.15 K, x2 = 0.111 | 0.282 | 1372.7 | – | 39
328.15 K, x1 = 0.111 | – | – | 1.4745 | –
328.15 K, x2 = 0.111 | 0.349 | 1361.6 | – | 24.1
338.15 K, x1 = 0.111 | – | – | 1.4737 | –
338.15 K, x2 = 0.111 | 0.418 | 1350.4 | – | 16.6
348.15 K, x2 = 0.111 | 0.482 | 1339.3 | – | 11.1
358.15 K, x2 = 0.111 | 0.55 | 1328.2 | – | 0.9
368.15 K, x2 = 0.111 | 0.609 | – | – | –

[Cl-].c1ccc(C[P+](c2ccccc2)(c2ccccc2)c2ccccc2)cc1 [benzyltriphenylphosphonium chloride] + OCC(O)CO
Settings | electrical conductivity, [1] [S/m] | refractive index, [2] | viscosity, [1] [mPa·s]
328.15 K, x1 = 0.167 | – | – | 553.7
328.15 K, x2 = 0.167 | – | 1.5502 | –
338.15 K, x1 = 0.167 | 0.00187 | – | 339.3
338.15 K, x2 = 0.167 | – | 1.5168 | –
348.15 K, x1 = 0.167 | 0.00167 | – | 118.6
358.15 K, x1 = 0.167 | 0.00151 | – | 75.5
368.15 K, x1 = 0.167 | 0.00139 | – | 38.7
